# Source: patent publication US20090131356A1, “miR-15, miR-26, miR-31, miR-145, miR-147, miR-188, miR-215, miR-216, miR-331, mmu-miR-292-3P REGULATED GENES AND PATHWAYS AS TARGETS FOR THERAPEUTIC INTERVENTION” (ASURAGEN, INC., priority 2006, published 2009)
# Key:
# Assay type in all cases: cell-based, human
# [1] = tested on: H1650-luc cells; assay: Alamar Blue proliferation assay, H1650-luc
# Description: (§1) The inventors assessed the therapeutic effect of hsa-miR-147 for lung cancer by using 12 individual lung cancer cell lines. To measure cellular proliferation of lung cancer cells, the following parental non-small cell lung cancer (NSCLC) cells were used: cells derived from lung adenocarcinoma (A549, H1299, H522, H838, Calu-3, HCC827, HCC2935), cells derived from lung squamous cell carcinoma (H520, H226), cells derived from lung adenosquamous cell carcinoma (H596), cells derived from lung bronchioalveolar carcinoma (H1650), and cells derived from lung large cell carcinoma (H460). In addition to these parental cell lines, highly metastatic NSCLC cells were used that stably express the firefly luciferase gene: A549-luc, H460-luc, HCC827-luc, H1650-luc, H441-luc. Unlike the parental cell lines, these metastatic cells readily migrate to distant sites of the test animal and form metastases upon subcutaneous, orthotopic, or intravenous injection. Synthetic hsa-miR-147 or negative control miRNA was delivered via lipid-based transfection into A549, H1299, H522, H838, Calu-3, HCC827, HCC2935, H520, H596, H1650, H460, A549-luc, H460-luc, HCC827-luc, H1650-luc, H441-luc cells and via electroporation into H226 cells. Lipid-based reverse transfection was carried out in triplicates according to a published protocol and the following parameters: 5000-12000 cells per 96 well, 0.1-0.2 μl lipofectamine-2000 (Invitrogen, Carlsbad, Calif.) in 20 μl OptiMEM (Invitrogen), […] final concentration of miRNA in 100 μl (Ovcharenko et al., 2005). Electroporation of H226 cells was carried out using the BioRad GenePulserXcell™ instrument with the following settings: 5×10^6 cells with 5 μg miRNA in 200 μl OptiMEM, square wave pulse at 250 V for 5 ms. Electroporated H226 cells were seeded at 7000 cells per 96-well in a total volume of 100 μl. All cells except for Calu-3 cells were harvested 72 hours post transfection or electroporation for assessment of cellular proliferation. Calu-3 cells were harvested 10 days post transfection. […]
# [2] = tested on: H1299 cells; assay: Alamar Blue proliferation assay, H1299
# Description: as §1, with “ms.” for “ms. Electroporated H226 cells were seeded at 7000 cells per 96-well in a total volume of 100 μl. All cells except for Calu-3 cells were harvested 72 hours post transfection or electroporation for assessment of cellular proliferation. Calu-3 cells were harvested 10 days post transfection.”
# (§2) The inventors determined sensitivity and specificity of hsa-miR-147 by administering hsa-miR-147 or negative control miRNA at increasing concentrations, ranging from 0 pM to 3 nM. Delivery of miRNA and cellular proliferation of A549 and H1299 cells was assessed as described above. […]
# [3] = tested on: H520 cells; assay: Alamar Blue proliferation assay, H520
# Description: as §1
# [4] = tested on: HCC827-luc cells; assay: Alamar Blue proliferation assay, HCC827-luc
# Description: as §1
# [5] = tested on: H1650 cells; assay: Alamar Blue proliferation assay, H1650
# Description: as §1
# [6] = tested on: H460-luc cells; assay: Alamar Blue proliferation assay, H460-luc
# Description: as §1
# [7] = tested on: H522 cells; assay: Alamar Blue proliferation assay, H522
# Description: as §1
# [8] = tested on: H596 cells; assay: Alamar Blue proliferation assay, H596
# Description: as §1
# [9] = tested on: HCC827 cells; assay: Alamar Blue proliferation assay, HCC827
# Description: as §1
# [10] = tested on: A549 cells; assay: Alamar Blue proliferation assay, A549
# Description: as §1, with “ms.” for “ms. Electroporated H226 cells were seeded at 7000 cells per 96-well in a total volume of 100 μl. All cells except for Calu-3 cells were harvested 72 hours post transfection or electroporation for assessment of cellular proliferation. Calu-3 cells were harvested 10 days post transfection.”
# as §2
# [11] = tested on: Calu-3 cells; assay: Alamar Blue proliferation assay, Calu-3
# Description: as §1
# [12] = tested on: H460 cells; assay: Alamar Blue proliferation assay, H460
# Description: as §1
# [13] = tested on: H838 cells; assay: Alamar Blue proliferation assay, H838
# Description: as §1
# [14] = tested on: A549-luc cells; assay: Alamar Blue proliferation assay, A549-luc
# Description: as §1
# [15] = etoposide 10 μM, normalized to negative control miRNA (100%)
# [16] = etoposide 50 μM, normalized to negative control miRNA (100%)
# [17] = 30 nM, normalized to negative control miRNA (100% proliferation)
molecule,measurement,setting,value
"COc1cc([C@@H]2c3cc4c(cc3[C@@H](O[C@@H]3O[C@@H]5CO[C@@H](C)O[C@H]5[C@H](O)[C@H]3O)[C@H]3COC(=O)[C@H]23)OCO4)cc(OC)c1O [Etoposide, etoposide]",% proliferation,[1]; [15],33.78%
same,% proliferation,[1]; [16],5.59%
same,% proliferation,[2]; [15],79.65%
same,% proliferation,[2]; [16],54.38%
same,% proliferation,[3]; [15],66.80%
same,% proliferation,[3]; [16],48.53%
same,% proliferation,[4]; [15],21.92%
same,% proliferation,[4]; [16],0.75%
same,% proliferation,[5]; [15],90.98%
same,% proliferation,[5]; [16],60.31%
same,% proliferation,[6]; [15],15.04%
same,% proliferation,[6]; [16],2.34%
same,% proliferation,[7]; [15],82.13%
same,% proliferation,[7]; [16],61.08%
same,% proliferation,[8]; [15],88.75%
same,% proliferation,[8]; [16],73.39%
same,% proliferation,[9]; [15],98.95%
same,% proliferation,[9]; [16],82.53%
same,% proliferation,[10]; [15],49.13%
same,% proliferation,[10]; [16],42.18%
same,% proliferation,[11]; [15],20.81%
same,% proliferation,[11]; [16],13.53%
same,% proliferation,[12]; [15],32.13%
same,% proliferation,[12]; [16],27.82%
same,% proliferation,[13]; [15],89.71%
same,% proliferation,[13]; [16],36.97%
same,% proliferation,[14]; [15],8.56%
same,% proliferation,[14]; [16],0.72%
"hsa-miR-147: Synthetic pre-miR-147 (Ambion AM17100; Dharmacon in vivo); mature sequence GUGUGUGGAAAUGCUUCUGC, MIMAT0000251, SEQ ID NO:114 (synthetic pre-miR (Ambion/Dharmacon), chemistry not given here; listed as Homo sapiens)",% proliferation,[1]; [17],59.27%
same,% proliferation,[2]; [17],78.22%
same,% proliferation,[3]; [17],95.64%
same,% proliferation,[4]; [17],61.15%
same,% proliferation,[5]; [17],84.61%
same,% proliferation,[6]; [17],39.54%
same,% proliferation,[7]; [17],89.21%
same,% proliferation,[8]; [17],91.60%
same,% proliferation,[9]; [17],76.18%
same,% proliferation,[10]; [17],67.78%
same,% proliferation,[11]; [17],37.62%
same,% proliferation,[12]; [17],72.11%
same,% proliferation,[13]; [17],71.44%
same,% proliferation,[14]; [17],75.69%
